Tested on: CytoD-treated RBC
Assay: Recovery of CytoD-treated RBCs (Wright Giemsa stain and immunofluorescence)
Type: cell-based, human
Details: CytoD 3 h, immunofluorescence
Protocol: Cytochalasin D (CytoD) is known to inhibit actin polymerization or depolymerization at barbed ends. The recovery effects of Wnts CM in RBCs was tested after incubation with CytoD in order to evaluate the potential effect of Wnt3/5 on polymerized actin in RBCs (FIGS. 12A-B). As show in FIGS. 12A-B, RBCs incubated with a medium containing Cyto D for 3 h, and then with Wnt 3/5 CM (in the absence of CytoD) for 6 h, were stained using two different methods. […] (FIG. 12B).

C=C1[C@@H](C)[C@H]2[C@H](Cc3ccccc3)NC(=O)[C@]23[C@H](OC(C)=O)/C=C/[C@@](C)(O)C(=O)[C@@H](C)C/C=C/[C@H]3[C@@H]1O [CytoD, Cytochalasin D]
actin state in RBCs after CytoD treatment: aggregates of cytoplasm actin
